Where a SMILES comes first, the peptide text is derived from it. The star is where a group is joined. Cbz = O=C(OCc1ccccc1)*; CH2F = FC*
Assays:
[1] = system: BACE, PS1, nicastrin, Pen-2 and Aph1a mRNA; assay: Northern blot of BACE and γ-secretase complex component mRNA in H4-APP751 cells; format: cell-based, human; details: after 6 hours of STS treatment
Protocol: FIG. 14 provides digitized images showing that transcription of BACE and γ-secretase complex components is decreased during apoptosis. Northern Blot analysis: H4-APP751 cells were treated with STS in serum free media. Total RNA was extracted using TRIZOL (Invitrogen). 20 μg of the resulting RNA were analyzed by Northern blot analysis performed as previously described (Koh, Y. H. et al., Faseb J 15, 1472-4 (2001)). Human cDNA of BACE, PS1 , nicastrin, Pen-2, Aph1a was labeled with [α-^32P]dCTP (PerkinElmer) using random hexanucleotide primers (Prime-a-gene labeling system; Promega). Ethidium staining of the gel (lower panel) confirmed equal RNA loading.
We next asked whether apoptosis increases protein levels of BACE, PS1, nicastrin, Pen-2 and Aph1a via increased synthesis. […] We next asked whether BACE, PS1, nicastrin, Pen-2 and Aph1a protein levels are increased during apoptosis due to decreased degradation. […] In contrast, TACE, full-length APP, and APP-CTFs were not stabilized during apoptosis (FIG. 15a). Given that the components of the β-amyloidogenic secretases are stabilized during apoptosis while many other proteins are degraded (e.g. TACE, APP), the apparent increase of protein levels at the latest time points of the CHX+STS time course was most likely due to a relative increase of stabilized protein when normalized for the equal amounts of total protein.

[2] = system: CHO cells overexpressing APP751 and PS1 WT; assay: Induction of apoptosis (caspase 3 activation, TUNEL); format: cell-based, Chinese Hamster; details: STS 1 μM, after 6 hrs
E-cadherin = E-cadherin proteolysis in A431 cells during STS-induced apoptosis (Western blot, C36 antibody); format: cell-based, human; details: zVAD-FMK 100 μM pre-incubated 30 min, then STS 6 hours
Protocol: FIG. 11 provides digitized images and graphs showing that apoptosis enhances γ-secretase activity and levels of γ-secretase complex proteins. FIG. 11a: Apoptosis was induced in CAB, CHO-CC99/PS1 and CHO-APP 751/PS1 by STS treatment for 6 hours with or without zVAD (100 μM). Secreted Aβ1−total was measured by ELISA. […] Each bar represents the mean and SD of quadruplicate determinations. FIG. 11b: Western blot analysis with the antibody, A8717, detected endogenous APP-FL and overexpressed C99 in CHO-CC99/PS1cells, while overexpressed APP-FL and C83 were detected in CHO-APP751/PS1 cells. FIG. 11c: A431 human epithelial cells were pre-incubated for 30 min in the absence (−) or presence (+) of zVAD-FMK (100 μM), L-685,458 (0.5 μM) or GM6001 (2.5 μM). Cells were then treated with STS for 6 hours to induce apoptosis, and cell extracts were probed with anti-E-cadherin C36 antibody. FIG. 11d: Protein levels of γ-secretase complex components were monitored by Western blotting employing the anti-nicastrin, Ab14, PNT2, H2D2 antibodies. Densitometry analysis was performed using NIH image software. Each bar represents the mean and SEM of at least three experiments. FIG. 11e: Nicastrin was transiently transfected in the A431 cells. Western blot analysis for E-cadherin and γ-secretase complex component was performed as in FIG. 11c and FIG. 11d β-tubulin was used as loading control.
To confirm that apoptosis/caspase activation increases γ-secretase activity, we next examined the proteolysis of E-cadherin, another γ-secretase substrate (Marambaud, P. et al., Embo J21, 1948-56 (2002)) during apoptosis. We confirmed that caspase activation enhanced the production of E-Cad/CTF1 (Steinhusen, U. et al., J Biol Chem 276, 4972-80 (2001)), E-Cad/CTF2 (Marambaud, P. et al., 2002) (˜2- and 3-fold increase by densitometry analysis, respectively), and generated E-Cad/CTF3 (Marambaud, P. et al., 2002) (FIG. 11c). […]

[3] = system: γ-secretase complex proteins; assay: γ-secretase complex protein levels by Western blot in H4 cells; format: cell-based, human; details: zVAD treatment
Protocol: Protein levels of PS1, nicastrin, Pen2 and Aph1A (components of the γ-secretase complex) were determined by Western blot (WB) analysis in H4 cells. […] The immature form of nicastrin appeared to be increased earlier (6 hrs) concurrently with caspase-3 activation (FIG. 5A). Furthermore, PS1-NTF, PS1-CTF, Pen2 and Aph1A were also up regulated (FIG. 5A). STS treatment also led to the generation of a caspase-mediated fragment of PS1-CTF (indicated by an arrow as a PS1-CTF). […] As a control for protein loading, the same blot was reprobed with an anti-Cu, Zn-SOD Ab showing that Cu, Zn-SOD protein levels were not increased.

| Structure (SMILES) | BACE, PS1, nicastrin, Pen-2 and Aph1a mRNA levels [1] | Apoptosis (caspase 3 activated, TUNEL positive) [2] | generation of E-Cad/CTF3 (E-cadherin) | upregulation of γ-secretase complex proteins during STS-induced apoptosis [3] |
| --- | --- | --- | --- | --- |
| CN[C@@H]1C[C@H]2O[C@@](C)([C@@H]1OC)n1c3ccccc3c3c4c(c5c6ccccc6n2c5c31)C(=O)NC4 [STS, staurosporine] | virtually undetectable | induced apoptosis |  |  |
| COC(=O)C[C@H](NC(=O)[C@H](C)NC(=O)[C@@H](NC(=O)OCc1ccccc1)C(C)C)C(=O)CF [zVAD] (Cbz-Val-Ala-Asp(OMe)-CH2F) |  |  | inhibited | prevented upregulation |
